According to US20200390850A1, “PEPTIDES AND USES THEREOF” (LATERAL IP PTY LTD, priority 2018, published 2020):
Like-named read-outs stand apart in the source and are kept apart here. Positions of bridges follow the written chain, without caps; N, C: chain ends. Residues, ends and D or L forms follow the SMILES beside them.

Legend:
[1] = in vivo
[2] = Ex vivo metabolism of LAT8881 in human whole blood; format: in vitro ADME
Method: (§1) Human or rat blood was collected into K2EDTA tubes and approximately 2.94 mL of blood was transferred into a polypropylene tube and kept in a water bath at 37° C. […] At the indicated times, approximately 300 μL of the spiked blood sample was transferred into a vial containing 30 μL of OX Protease Inhibitor Cocktail (Sigma Aldrich; Product No. P2714), mixed well and centrifuged at 4° C. The plasma fraction was then collected, transferred into polypropylene tubes and stored at -80° C. […] […] NO:11)) and vortex-mixed with 200 μL of acetonitrile for 5 min at 1500 rpm. The resulting mixture was then centrifuged at 14000 rpm for 5 min and the supernatant was evaporated at 37° C. under a stream of nitrogen to dryness. The residue was reconstituted in 150 μL of reconstitution solution and approximately 150 μL of the reconstituted sample was transferred to a 96 well-plate for injection into the LC-MS system. […] The mobile phase was (a) 5% acetonitrile/water with 0.1% formic acid, and (b) 95% acetonitrile/water with 0.1% formic acid. Eluted peaks were analysed using mass spectrometry. For the analysis of LAT9998 (SEQ ID NO:11), a 5 μL aliquot of each plasma sample was injected into a Shimadzu Nexera UPLC system equipped with a Phenomenex Aeris Peptide XB-C18, 3.6 μm, 150×2.1 mm. The mobile phase was (a) 5% acetonitrile/water with 0.1% formic acid, and (b) 95% acetonitrile/water with 0.1% formic acid. Eluted peaks were analysed using mass spectrometry. Samples were analysed using an AB Sciex QTrap 5500 mass spectrometer with ESI in positive mode. MRM analyses were conducted with Ion Spray (IS) at 5500 V and the Curtain Gas (CUR) was set at 20. Multiple MRM transitions were monitored to ensure the chromatographic peaks observed are from the nominal compound. Results are reported as analyte peak area ratios (normalized versus internal standard peak area).

[3] = Ex vivo metabolism of LAT8881 in rat whole blood; format: in vitro ADME
Method: as §1

[4] = tested on: rats with CFA-induced inflammation; assay: Paw withdrawal threshold in CFA-induced inflammatory (nociceptive) pain; format: in vivo, rat; conditions: 3 mg/kg body weight; at 1 and 2 hours after administration
Method: Briefly, rats were anaesthetized with 3% isoflurane mixed with 97% oxygen. The left paw was injected with 0.05 ml CFA emulsion (F5881, Sigma-Aldrich) in saline (CFA:saline=1:1, vol./vol.). After CFA injection, the animals were returned to their home cages. Regular observations were be carried out to monitor the conditions of the animals after injection.

[5] = tested on: nerve cells in spinal cord slices; assay: Spontaneous electrical activity in spinal cord slices from Chung model rats; format: cell-based, rat; conditions: 1 μM added to spinal cord slice
Method: Within 2 minutes of addition of 1 μM LATc9991F to the spinal cord slice, this electrical activity was suppressed; * indicates time that LATc9991F was added to the spinal cord slice preparation.
This study was undertaken to assess the effect of LATc9991F (SEQ ID NO:10) on spontaneous electrical activity on spinal cord slices from Chung model rats with confirmed neuropathic pain. LATc9991F is a non-human variant of LAT9991F that is derived from the feline, canine and equine variants of human growth hormone, as described in WO 2013/082667.
Briefly, spinal cord slices were prepared from Chung model rats with confirmed neuropathic pain symptoms, and spontaneous electrical activity was measured as in Example 1. […] Within 2 minutes of addition of LATc9991F to the slice, this electrical activity was suppressed by LATc9991F.

[6] = tested on: Chung rats; assay: Paw withdrawal threshold in nerve constriction model of neuropathic pain (Chung model); format: in vivo, rat; conditions: for paw withdrawal threshold of ipsilateral paw: vs vehicle
Method: Briefly, adult male Sprague-Dawley rats, 8-9 weeks old, weighing 220-250 g at the time of surgery, were purchased from Charles River UK Ltd.
The animals were housed in groups of 4 in an air-conditioned room on a 12-hour light/dark cycle. Food and water were available ad libitum. They were allowed to acclimatise to the experimental environment for three days by leaving them on a raised metal mesh for at least 40 min. The baseline paw withdrawal threshold (PWT) was examined using a series of graduated von Frey hairs for 3 consecutive days before surgery and re-assessed on the 6th to 8th day after surgery and on the 12th to 14th day after surgery before drug dosing.
Each rat was anaesthetized with 5% isoflurane mixed with oxygen (2 L per min) followed by an intramuscular (i.m.) injection of ketamine 90 mg/kg plus xylazine 10 mg/kg. The back was shaved and sterilized with povidone-iodine. The animal was placed in a prone position and a para-medial incision was made on the skin covering the L4-6 level. The L5 spinal nerve was carefully isolated and tightly ligated with 6/0 silk suture. The wound was then closed in layers after a complete hemostasis. A single dose of antibiotics (Amoxipen, 15 mg/rat, i.p.) was routinely given for prevention of infection after surgery. The animals were placed in a temperature-controlled recovery chamber until fully awake before being returned to their home cages.
The vehicle (1% DMSO in PBS) and LAT8881 (AOD9604, GL449; provided by Lateral Pharma Pty Ltd) was administrated intramuscularly (i.m.) into the leg of the side contralateral to the site of injury. Dosing was carried out by a second experimenter. The rats with validated neuropathic pain state were randomly divided into 5 experimental groups: 1 ml/kg vehicle, 0.1, 0.5, 1 and 5 mg/kg LAT8881.
Each group had 8 animals. The animals were placed in individual Perspex boxes on a raised metal mesh for at least 40 minutes before the test. Starting from the filament of lowest force (about 1 g), each filament was applied perpendicularly to the centre of the ventral surface of the paw until slightly bent for 6 seconds. If the animal withdrew or lifted the paw upon stimulation, then a hair with force immediately lower than that tested was used. If no response was observed, then a hair with force immediately higher was tested. The lowest amount of force required to induce reliable responses (positive in 3 out of 5 trials) was recorded as the value of PWT.
The drug test was carried out on the 12th to 14th day after surgery. PWT were assessed before, 1, 2 and 4 hours following drug or vehicle administration. The animals were rested by being returned to their home cages (about 30-60 min) between two neighbouring testing time points. LAT8881 was administered by a single intramuscular injection (IM) in the ipsilateral limb at a dose of about 0.1 mg/kg body weight to about 5 mg/kg body weight.
LAT9991 was administered by a single intramuscular injection (IM) in the ipsilateral limb at a dose of about 0.1 mg/kg body weight to about 5 mg/kg body weight.
Gabapentin, as a positive control, obtained from Actavis, UK (Lot No. GJ29), was administered orally at 100 mg/2 ml/kg in normal saline. Dosing was carried out by a second experimenter.
Briefly, LAT9991F was administered orally at a dose of about 1 mg/kg body weight to about 5 mg/kg body weight.
Briefly, LAT9991 was administered orally at a dose of about 1 mg/kg body weight, 2 mg/kg body weight and 5 mg/kg body weight.

[7] = tested on: Lamina I or II neurones; assay: Whole-cell patch clamp on spinal cord slices with intact dorsal root afferents: evoked post-synaptic currents; format: cell-based, rat; conditions: comparator; data not shown
Method: An in vitro spinal cord slice with intact dorsal root afferents combined with single-cell whole-cell patch clamp electrophysiological recording techniques was used to assess the electrophysiological properties of the peptide having the amino acid sequence of SEQ ID NO:2.
Spinal cord slices were prepared from chronic nerve constriction models of neuropathic pain (Chung models) and tested against the peptide of SEQ ID NO:2.
The spinal nerve ligation model (Chung model) was first reported by Kim and Chung (1992; Pain, 50(3):355-63) and involves a single tight ligation of the L5 spinal nerve. […] This model has been used as a “gold standard’ model for assessing the efficacy of novel compounds targeting neuropathic pain.
Adult male Sprague-Dawley rats, 8-9 weeks old, weighing 220-250 g at the time of surgery, were purchased from Charles River UK Ltd. The animals were housed in groups of 4 in an air-conditioned room on a 12-hour light/dark cycle. […] The baseline paw withdrawal threshold (PWT) was examined using a series of graduated von Frey hairs for 3 consecutive days before surgery and re-assessed on the 6th to 8th day after surgery and on the 12th to 14th day after surgery before drug dosing Each rat was anaesthetized with 5% isoflurane mixed with oxygen (2 L per min) followed by an intramuscular (i.m.) injection of ketamine 90 mg/kg plus xylazine 10 mg/kg. […]

Compound: CC[C@H](C)[C@H](NC(=O)[C@H](CCCNC(=N)N)NC(=O)[C@H](CC(C)C)NC(=O)[C@@H](N)Cc1ccc(O)cc1)C(=O)N[C@H](C(=O)N[C@@H](CCC(N)=O)C(=O)N[C@H]1CSSC[C@@H](C(=O)NCC(=O)N[C@@H](Cc2ccccc2)C(=O)O)NC(=O)[C@H](CO)NC(=O)CNC(=O)[C@H](CCC(=O)O)NC(=O)[C@H](C(C)C)NC(=O)[C@H](CO)NC(=O)[C@H](CCCNC(=N)N)NC1=O)C(C)C [LAT8881, YLRIVQCRSVEGSCGF] (H-YLRIVQCRSVEGSCGF-OH; disulfide 7-14; N-terminus and C-terminus assumed)
- half-life [1]: < 1 min
- half-life ([2]; human blood, LAT8881-spiked, 37° C., read-out: ex vivo half-life): 3 to 6 min
- half-life ([3]; rat blood, LAT8881-spiked, 37° C., read-out: ex vivo half-life): 3 to 6 min

Compound: CC(C)[C@@H]1NC(=O)[C@H](CO)NC(=O)[C@H](CCCNC(=N)N)NC(=O)[C@@H](N)CSSC[C@@H](C(=O)NCC(=O)N[C@@H](Cc2ccccc2)C(=O)O)NC(=O)[C@H](CO)NC(=O)CNC(=O)[C@H](CCC(=O)O)NC1=O [LAT9991F, CRSVEGSCGF] (H-CRSVEGSCGF-OH; disulfide 1-8; N-terminus and C-terminus assumed)
- half-life ([2]; human, blood): > 60 min
- half-life ([3]; rat, blood): > 60 min

Compound: CN1CC[C@]23c4c5ccc(O)c4O[C@H]2[C@@H](O)C=C[C@H]3[C@H]1C5 [morphine]
- analgesic effect on nociceptive pain (paw withdrawal threshold) [4]: significant analgesic effect

Compound: CRRFVESSCA (listed as Canis lupus) [LATc9991F, non-human variant of LAT9991F derived from the feline, canine and equine variants of human growth hormone]
- spontaneous electrical activity in nerve cells [5]: suppressed
- time after addition within which electrical activity was suppressed [5]: ≤ 2 min

Compound: CRSVEGSC (listed as Homo sapiens) [LAT9998, metabolite of LAT8881]
- Detection of LAT9998 (peak area ratio) in all samples [2]: LAT9998 peaks were not detectable
- Detection of LAT9998 (peak area ratio) in all samples [3]: LAT9998 peaks were not detectable

Compound: CRSVEGSCG (listed as Homo sapiens) [LAT9991]
- analgesic effect compared with gabapentin at 100 mg/kg body weight orally ([6]; 5 mg/kg body weight PO): comparable
- analgesic effect compared with gabapentin at 100 mg/kg body weight ([6]; 5 mg/kg body weight i.m.): comparable
- effect on the contralateral paw responses ([6]; PO): No effect
- time after administration within which effect on paw withdrawal threshold was observed ([6]; PO): ≤ 1 h
- time for which effect on paw withdrawal threshold was maintained ([6]; PO): at least 4 hours
- improvement in paw withdrawal threshold compared with LAT8881 ([6]; PO, vs Example 7): comparable
- effect on the contralateral paw ([6]; i.m.): no effect
- time after administration within which effect on paw withdrawal threshold was observed ([6]; i.m.): ≤ 1 h
- time for which effect on paw withdrawal threshold was maintained ([6]; i.m.): at least 4 hours
- improvement in paw withdrawal threshold compared with LAT8881 ([6]; i.m., vs Example 5): comparable
- biological activity compared to the parent peptide LAT8881 (magnitude and duration of neuropathic analgesia) ([6]; nerve constriction model): equivalent or substantially equivalent
- paw withdrawal threshold of ipsilateral paw ([6]; oral gavage 1, 2 and 5 mg/kg body weight): significant dose-dependent improvement
- paw withdrawal threshold of ipsilateral paw ([6]; single i.m. injection, about 0.1 to 5 mg/kg body weight): significant dose-dependent improvement

Compound: human growth hormone: human growth hormone, comparator in the spinal cord slice recording
- effect on post-synaptic current [7]: no effect
